# From patent US20240271100A1, “IN VITRO DIFFERENTIATION OF PANCREATIC ENDOCRINE CELLS” (VERTEX PHARMACEUTICALS INCORPORATED, priority 2020, published 2024)
# What was measured:
# [1] = biological target: EZH2 (Homo sapiens, UniProt Q15910); conditions: cited from earlier work
# [2] = system: primitive gut tube cells; assay: FGF2 applied during S3 of the Version A differentiation protocol; flow cytometry of the resulting endocrine cell population; type: cell-based, human
# Procedure: An exemplary differentiation protocol, Version A, according to the present disclosure and its modified version, which added use of FGF2 at Stage 3, were tested for differentiating human stem cells into mature β cells capable of releasing insulin in response to glucose challenge in vitro.
# (§1) For initial steps, basically, human pluripotent stem cell line SEM01 was thawed from a 3D suspension bank and seeded at a density of 1M cells/ml into 500 ml spinner flasks (Corning; 89,089-814) with 300 ml Nutristem media (Biological Industries 05-100-1A) supplemented with […] Y27632 (ab120129) and 100 ng/ml FGF2 (Peprotech RUO: 100-18B-1MG). Spinner flasks were placed on a magnetic stir plate (Chemglass) rotating at 60 r.p.m. in a humidified 37 C incubator set at 5% CO2. Cells were passaged every 72 hours. After 3 passages, cells were seeded at 0.5M cells/ml density and fed every 24 hours until 72 hours. Then, differentiation was initiated in spinner flasks using the Version A differentiation protocol which begins on day 1 of Stage 1 (S1, day 1). FGF2 was added to Stage 3, Stage 4, or Stage 5 as detailed below in the modified protocol.
# (§2) Version A protocol is a 6-stage stepwise protocol. With Version A protocol, stem cells were treated with reagents in the following consecutive orders during the six stages: Stage 1 (S1), Activin-A for 3 days and also CHIR99021 for the first 24 hr; Stage 2 (S2), KGF for 3 days; Stage 3 (S3), KGF, PDBU, Sant-1, retinoic acid (RA), Activin A, and Thiazovivin for 2 days, and also DMH-1 for the first day; Stage 4 (S4), KGF, Sant-1, Thiazovivin, Activin A, and RA for 6 days; Stage 5 (S5), XXI, Alk5i, GC-1, LDN-193189, Thiazovivin, Staurosporine, and DZNEP for 7 days, and also RA, Sant-1, and Betacellulin for the first 2 days.
# In one experiment, on protocol day 7 (S3, day 1; S3dl), 10 mL of cell clusters were taken from the spinner flask and aliquoted into 2 wells of ultra-low attachment 6-well plates (Corning 29443) (5 mL/well). The plate was placed on an orbital shaker set to 130 rpm in the incubator. Cells received either control Version A conditions as described above or were supplemented with FGF2 (100 ng/ml) on protocol day 7 and day 8 only (S3d1 and S3d2).
# (§3) Upon completion of Stage 5, on Stage 6 day 1 (S6dl), the cells were collected, dispersed, and analyzed by flow cytometry. Briefly, islets were dispersed with TrypLE Express (Life Technologies; 12,604,013) at 37 C, fixed with 4% PFA for 20 mins at 4 C, blocked by 1 hour in FACS buffer (5% Donkey Serum and 0.1% Saponin in PBS) at room temperature, stained with NKX6.1 (DSHB FSSA12 1:100) and ISL1 (ab178400 1:500) antibodies diluted in FACS buffer overnight at 4 C. The next day, cells were washed twice with FACS buffer, stained with secondary antibody: anti-Rabbit AlexaFluor-488 (A31573 1:1000) and anti-Mouse Alexa Fluro-647 (A31571 1:1000) diluted in FACS buffer, and washed twice with FACS buffer. Stained cells were measured using an Accuri 6 flow cytometer (BD Biosciences) and analyzed using Accuri software.
# [3] = system: PDX1-positive, NKX6.1-positive pancreatic progenitor cells; assay: FGF2 applied at S5 day 1 and day 2 of the Version A differentiation protocol; flow cytometry on S6d1; type: cell-based, human; conditions: FGF2 100 ng/mL at S5 day 1 and day 2; FIGS. 8A-8B
# Procedure: as §1, §2
# Upon completion of Stage 5, on Stage 6 day 1 (S6dl), the cells were collected, dispersed, and analyzed by flow cytometry. […] Stained cells were measured using an Accuri 6 flow cytometer (BD Biosciences) and analyzed using Accuri software.
# In one experiment, Version A protocol, as described in Example 1, was compared with a modified protocol in which 100 ng/mL FGF2 was added on protocol day 15 and day 16 (Stage 5 day 1 and day 2). As described above, on S6dl, the cells were collected, dispersed, and analyzed by flow cytometry.
# [4] = system: Stage 6 cells (NKX6.1-positive, ISL1-positive endocrine cells); assay: FGF2 applied at S6 of the Version A or Version B differentiation protocol; cell composition by flow cytometry; type: cell-based, human
# Procedure: In one experiment, the effect of FGF2 treatment at S6 was examined by comparing Stage 6 cells generated with Version A protocol, as described in Example 1, or with Version A protocol plus FGF2 treatment (100 ng/mL) at S6 for the first 3 days.
# In another experiment, the effect of FGF2 treatment at S6 was examined by comparing S6 cells generated under four differentiation conditions: Version A protocol; Version A protocol + FGF2 treatment (100 ng/mL for the first 12 days) at S6; Version B protocol; Version B protocol+ FGF2 treatment at S6. Version B protocol shares similar reagents and treatment timing with […], in Version B protocol, one difference from Version A protocols is that the cells were supplemented with 500 nM PDBU from day 5 of Stage 4 (S4d5) to day 2 of […] (S5d2). […]
# [5] = system: PDX1-positive pancreatic progenitor cells; assay: FGF2 applied during S4 of the Version A differentiation protocol; flow cytometry of the resulting endocrine cell population; type: cell-based, human
# Procedure: as §1, §2, §3
# In one experiment, Version A protocol, as described in Example 1, was compared with a modified protocol in which 100 ng/mL FGF2 was added on day 1, 3, and 5 of S4 to the culture medium. As described above, on S6dl, the cells were collected, dispersed, and analyzed by flow cytometry.
# [6] = FGF2 treatment at S3, by the end of S5, FIGS. 8A-8B
# [7] = FGF2 treatment at S6, summary FIG. 8A
# [8] = Version B protocol, FGF2 at S6, by S6d8 and S6d12, FIGS. 5A-C
# [9] = FGF2 100 ng/mL at S4 versus Version A without FGF2, FIG. 2B
# [10] = FGF2 treatment at S4, FIGS. 8A-8B
# Chain of EZH2 (Q15910 whole entry, species assumed): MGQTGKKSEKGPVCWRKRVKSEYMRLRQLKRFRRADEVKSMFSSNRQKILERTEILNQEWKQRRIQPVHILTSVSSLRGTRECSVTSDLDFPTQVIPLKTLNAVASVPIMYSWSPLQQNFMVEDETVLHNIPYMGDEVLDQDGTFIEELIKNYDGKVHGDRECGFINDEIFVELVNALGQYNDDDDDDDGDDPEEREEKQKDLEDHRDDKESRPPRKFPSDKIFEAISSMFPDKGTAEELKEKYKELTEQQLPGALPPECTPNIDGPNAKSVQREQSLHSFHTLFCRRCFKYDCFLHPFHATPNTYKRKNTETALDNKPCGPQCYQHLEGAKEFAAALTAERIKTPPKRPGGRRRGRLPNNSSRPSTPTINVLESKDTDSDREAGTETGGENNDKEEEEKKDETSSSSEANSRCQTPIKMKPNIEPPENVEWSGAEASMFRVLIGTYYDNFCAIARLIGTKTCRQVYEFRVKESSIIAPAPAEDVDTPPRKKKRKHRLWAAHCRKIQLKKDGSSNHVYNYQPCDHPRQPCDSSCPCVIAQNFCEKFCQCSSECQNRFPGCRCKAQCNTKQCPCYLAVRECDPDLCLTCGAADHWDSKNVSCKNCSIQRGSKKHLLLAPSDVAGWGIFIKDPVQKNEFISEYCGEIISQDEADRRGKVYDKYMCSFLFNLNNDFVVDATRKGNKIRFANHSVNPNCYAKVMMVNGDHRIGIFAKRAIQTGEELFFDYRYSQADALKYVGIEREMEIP
# Chain of EZH2 (O75530 whole entry partner, species assumed): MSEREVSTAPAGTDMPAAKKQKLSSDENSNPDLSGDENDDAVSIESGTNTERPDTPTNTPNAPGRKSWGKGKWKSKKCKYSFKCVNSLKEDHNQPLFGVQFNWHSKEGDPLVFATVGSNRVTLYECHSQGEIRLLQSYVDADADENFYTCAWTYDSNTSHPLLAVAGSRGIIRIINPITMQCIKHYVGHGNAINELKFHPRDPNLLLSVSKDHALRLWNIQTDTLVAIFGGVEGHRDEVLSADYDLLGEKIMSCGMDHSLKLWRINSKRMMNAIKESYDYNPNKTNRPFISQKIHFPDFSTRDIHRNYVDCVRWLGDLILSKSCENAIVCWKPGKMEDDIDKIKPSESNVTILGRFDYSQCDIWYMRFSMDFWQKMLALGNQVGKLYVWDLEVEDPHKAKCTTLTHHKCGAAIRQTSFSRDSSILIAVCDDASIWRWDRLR
# Chain of EZH2 (Q15022 whole entry partner, species assumed): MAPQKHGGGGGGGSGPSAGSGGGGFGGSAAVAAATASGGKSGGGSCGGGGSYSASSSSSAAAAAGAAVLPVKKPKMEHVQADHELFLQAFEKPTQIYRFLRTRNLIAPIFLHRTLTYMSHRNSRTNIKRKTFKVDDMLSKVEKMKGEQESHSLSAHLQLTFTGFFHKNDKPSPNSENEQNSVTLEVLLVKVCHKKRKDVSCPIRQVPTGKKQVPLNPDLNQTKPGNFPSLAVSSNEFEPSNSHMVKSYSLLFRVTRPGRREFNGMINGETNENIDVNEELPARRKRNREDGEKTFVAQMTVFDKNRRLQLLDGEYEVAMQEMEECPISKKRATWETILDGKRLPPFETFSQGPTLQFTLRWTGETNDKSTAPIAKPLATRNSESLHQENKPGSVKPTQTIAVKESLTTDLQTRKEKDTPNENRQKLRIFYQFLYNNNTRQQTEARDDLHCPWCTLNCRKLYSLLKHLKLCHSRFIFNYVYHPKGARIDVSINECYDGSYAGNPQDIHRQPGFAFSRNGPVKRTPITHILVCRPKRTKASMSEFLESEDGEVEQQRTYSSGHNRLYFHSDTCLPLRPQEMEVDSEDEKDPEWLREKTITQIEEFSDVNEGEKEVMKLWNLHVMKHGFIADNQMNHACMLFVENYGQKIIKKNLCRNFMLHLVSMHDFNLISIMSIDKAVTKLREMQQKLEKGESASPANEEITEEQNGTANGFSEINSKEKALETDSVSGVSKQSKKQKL
molecule,measurement,setting,value
CC[C@H](C)n1cc(C)c2c(C(=O)NCc3c(C)cc(C)[nH]c3=O)cc(-c3ccc(N4CCNCC4)nc3)cc21 [GSK126],selectivity over EZH1,[1]; EZH2 versus EZH1,150 fold
CCCc1cc(C)[nH]c(=O)c1CNC(=O)c1cc(-c2ccc(N3CCN(C(C)C)CC3)nc2)cc2c1cnn2C(C)C [UNC1999],selectivity compared with GSK126,[1],less selective
FGF2: growth factor from the FGF family; human FGF2 polypeptide sequence (GenBank Accession NP 001997); Peprotech RUO: 100-18B-1MG,"percentage of SC-α cells that express ISL1, but do not express NKX6.1","[2]; FGF2 100 ng/ml on S3d1 and S3d2, Version A, flow cytometry on S6d1, without FGF2 9.7%",35.1%
same,percentage of SC-enterochromaffin cells (SC-EC) that express NKX6 but not ISL1.1,"[2]; FGF2 100 ng/ml on S3d1 and S3d2, Version A, flow cytometry on S6d1, without FGF2 31.7%",13.1%
same,percentage of SC-β cells that express both NKX6.1 and ISL1,"[2]; FGF2 100 ng/ml on S3d1 and S3d2, Version A, flow cytometry on S6d1, without FGF2 49.3%",36.6%
same,change in percentage of SC-EC cells,[2]; [6],decreased
same,change in percentage of SC-β cells,[2]; [6],decreased
same,change in percentage of SC-α cells,"[2]; FGF2 treatment at S3, cells generated by the end of S5, FIGS. 8A-8B",increased
same,change in SC-EC cells,[3],decrease
same,change in SC-α cells,[3],increase
same,change in percentage of SC-β cells,[3],no significant change
same,change in percentage of Ki67-positive cells,"[4]; FGF2 at S6, both Version A and Version B protocols",increased
same,"percentage of non-proliferating SOX9-positive cells (SOX9-positive, Ki67-negative)","[4]; FGF2 at S6, by S6d12, both Version A and Version B protocols, without FGF2 15%-25%, FIG. 6A",about 65%
same,"percentage of proliferating SOX9-positive cells (SOX9-positive, Ki67-positive)","[4]; FGF2 at S6, by S6d12, both Version A and Version B protocols, without FGF2 close to zero, FIG. 6B",15%-20%
same,"change in percentage of proliferating non-SOX9 cells (SOX9-negative, Ki67-positive)","[4]; FGF2 treatment at S6, FIG. 6C",small change
same,"effect on SC-EC cells, as measured by expression of VMAT1, or positivity for NKX6.1 and negativity for ISL1","[4]; FGF2 treatment at S6, S6d4, S6d8, S6d12, FIGS. 7A-7B",small effect
same,change in percentage of SC-α cells,[4]; [7],increase
same,change in percentage of SC-β cells,[4]; [7],increase
same,change in percentage of SC-δ cells,[4]; [7],increase
same,"percentage of NKX6.1-positive, ISL1-positive SC-β cells","[4]; Version A plus FGF2 100 ng/mL at S6 for the first 3 days, flow cytometry, without FGF2 18.5%",36.9%
same,change in percentage of SC-β cell,"[4]; Version A protocol, FGF2 100 ng/mL for the first 12 days at S6, by S6d8 and S6d12",relatively unchanged
same,change in SC-δ cell percentage,[4]; [8],increased
same,change in percentage of SC-α cells,[4]; [8],reduced
same,change in percentage of SC-β cells,[4]; [8],reduced
same,change in SOX9-positive cells,"[4]; addition of FGF2 at S6, both Version A and Version B protocols",significantly increased
same,"change in percentage of glucagon-positive, ARX-positive cells",[5]; [9],increased
same,change in percentage of total ARX-positive cells,[5]; [9],increased
same,increase of the percentage of somatostatin-positive SC-δ cells,[5]; [9],about two
same,"percentage of NKX6.1-negative, ISL1-positive SC-α cells","[5]; FGF2 100 ng/mL on day 1, 3 and 5 of S4, Version A, flow cytometry on S6d1, without FGF2 5.6%",12.0%
same,"percentage of NKX6.1-positive, ISL1-positive SC-β cells","[5]; FGF2 100 ng/mL on day 1, 3 and 5 of S4, Version A, flow cytometry on S6d1, without FGF2 around 43%",around 55%
same,change in percentage of SC-EC cells,[5]; [10],decreased
same,change in percentage of SC-α cells,[5]; [10],increase
same,change in percentage of SC-β cells,[5]; [10],increase
same,change in percentage of SC-δ cells,[5]; [10],increase
same,change in percentage of SOX9-positive cells,[5]; [10],decreased
same,percentage of VMAT1-positive cells,"[5]; FGF2 treatment at S4, without FGF2 about 60%, FIG. 3B",about 40%
same,"percentage of SOX9-positive, NKX6.1-positive cells","[5]; FGF2 treatment at S4, without FGF2 around 12.5%",around 5%
same,percentage of total SOX9-positive cells,"[5]; FGF2 treatment at S4, without FGF2 around 20%, FIG. 3A",around 14%
same,"percentage of NKX6.1-positive, ISL1-negative cells","[5]; FGF2 treatment at S4, without FGF2 around 40%, FIG. 3B",around 20%
